Measurements from article PMC8631675, “Neuroprotective effects of some epigenetic modifying drugs’ on Chlamydia pneumoniae-induced neuroinflammation: A novel model” (PLoS ONE, 2021).
Where two headings read alike, the source gives them in different places.

Assays:
[1] = system: low density lipoprotein receptor-related protein 1 (LRP-1) and P-glycoprotein (P-gp); design: method as in PMID 22504320; settings: by upregulating LRP-1 and P-gp; cited from earlier work
[2] = system: differentiated SH-SY5Y cells; assay: Cell proliferation (cytotoxicity) analysis with xCELLigence, SH-SY5Y; format: cell-based, human; settings: for IC50: Homo sapiens, SH-SY5Y
Description: (§1) Cell proliferation analysis was performed with xCELLigence Real-Time Cell Analysis System to assess TSA, RG108, givinostat, and rifampin concentrations for use in both models. Differentiated SH-SY5Y and HMC3 microglia cells were seeded at a 5x10^3 density per well and incubated 24 h until CI values reached a log phase. The system stopped at the end of 24 h, 100, 10 and 1 μM TSA, givinostat, RG108 and rifampin were applied on current media and the cell viability was tracked. […] Simultaneously, slope plots were drawn using the CI values at 24 and 48 hours, and the statistical significance of the values discovered by assuming the average CI values of the control wells to be 100% was calculated.

mutated COS-7 cells = system: mutated COS-7 cells; design: method as in PMID 27020329; settings: mutated COS-7 cells expressing amyloid precursor protein; cited from earlier work
[3] = system: differentiated SH-SY5Y cells; assay: Cell viability against Aβ-induced neurotoxicity, xCELLigence; format: cell-based, human; settings: 24 h pretreatment (drugs 100 nM; CFS 1 μg/ml + IFN-γ; LPS 100 ng/ml + IFN-γ), then 5 μM Aβ (1–42) aggregates 24 h
Description: Pathological deterioration in AD is mainly associated with overproduction of the Aβ peptide and the Aβ (1–42) variant is the toxic form that is more predominant in Alzheimer’s patients. In this study, a modified oligomeric Aβ (1–42) neurotoxicity analysis protocol was applied in order to elucidate the effects of treatment groups on SH-SY5Y cell viability in the presence of Aβ [56]. In order to model Aβ-induced neurotoxicity in vitro, an oligomeric form of the Aβ1–42 peptide was prepared by diluting with ice-cold Ham’s F12 Nutrient Mixture medium dissolved in PBS containing 0.02 M NaOH at a final concentration of 50 μM and kept in a 37°C incubator for 7 days to form peptide aggregates prior to the experiments. 5x10^3 SH-SY5Y cells were differentiated inside the xCELLigence instrument for 5 days and treated with 100 nM TSA, RG108, givinostat, rifampin; 100 ng/ml LPS+IFN-ɣ or 1 μg/ml CFS+IFN-ɣ for 24 h in order to evaluate neuroprotection. The co-culture was performed in the same way as the neuroinflammation model. Neurotoxicity was obtained instead of neuroinflammation by diluting to 5 μM with fresh medium and adding Aβ1–42 aggregates to the wells for 24 h in 100 μl of medium. Cell viability data was then monitored for 24 h and analyzed within the instrument.

HMC3 microglia cells = assay: Cell proliferation (cytotoxicity) analysis with xCELLigence, HMC3; format: cell-based, human; settings: for IC50: Homo sapiens
Description: as §1

SH-SY5Y cells = assay: Total ROS/Superoxide detection; format: cell-based, human
Description: The Total ROS/Superoxide Detection Kit (ENZ-51010, Enzo) was used according to the kit process for evaluating the protective effects of the treatment groups on SH-SY5Y cells seeded at a 2x10^4 density per well in 96-well plates and Aβ was applied. ROS inhibitor N-acetyl cysteine (NAC) was applied at 5 mM concentration to negative control groups 30 minutes before the experiment and after incubation, 100 μL of “ROS/Superoxide Detection Solution” was added to the wells in the kit. The same procedure was done without the application of ROS inhibitor. Fluorometric analysis of stained cells was analyzed with Cytation 3 Cell Imaging Multi-Mode Reader (BioTek) using 490/525 nm and 550/620 nm filter sets.

[4] = system: differentiated SH-SY5Y cells; assay: Annexin V-PI staining of Aβ-induced cell death, flow cytometry; format: cell-based, human; settings: pretreatment (drugs 100 nM; LPS 100 ng/ml + IFN-γ; CFS 1 μg/ml + IFN-γ) + 5 μM Aβ 24 h
Description: To determine neuronal apoptosis associated with Aβ exposure, 25x10^3 differentiated SH-SY5Y cells were seeded in 24-well plates and Aβ was applied. After 24 h, cells were trypsinized and staining was performed according to the CF 488A Annexin V and PI Apoptosis Kit (Biotium, USA, Cat. No: 30061) protocol. After washing the cells with 1xPBS, the working solution was prepared by diluting the PI with Annexin V binding buffer included in the kit. 5 μl Annexin V and 2 μl PI working solution were added to the centrifuge tubes and binded with 100 μl Annexin V binding buffer. After the samples were incubated for 30 minutes on ice and in the dark, 400 μl of Annexin V binding buffer was added to each tube and the samples were measured and analyzed in a BD Accuri™ C6 flow cytometry device.

IL-1β gene expression = assay: RT-PCR IL-1β gene expression in HMC3 microglia cells; format: cell-based, human; settings: 24 h
Description: (§2) LPS and/or proinflammatory cytokines like IFN-ɣ, have been used alone or in combination in most in vitro neuroinflammation models to study microglial activation. Therefore, the effects of lyophilized cell free supernatant (CFS)+IFN-ɣ combination, which was determined to increase IL-1β and CD218a cytokine levels most effectively, on IL-1β, TNF-α and IL-8 gene expressions were compared with LPS+IFN-ɣ combination in order to determine the activation concentration.
(§3) RNA isolations were performed in MagNA Pure Compact System (Roche, Germany) using MagNA Pure Compact RNA Isolation Kit® (Catalog No: 04802993001, Roche, Germany) after 24-h. The total RNA amounts of the samples were measured at 260 and 280 nm in the NanoDrop 2000® (Thermo Fisher, USA) spectrophotometer. cDNA was obtained using the Transcriptor High Fidelity cDNA Synthesis Kit® (Catalog no: 05091284001, Roche, Germany) following the kit protocol from […] RNA of each sample. After the cDNA samples were replicated by PCR method, the expression levels were determined with the LightCycler® 480 Real-Time PCR System (Roche, Germany) using the IL-1β, TNF-α and IL-8 primers (PRZ BioTech, Turkey). Actin beta (ACTB) was used as a housekeeping gene. Primer sequences and RT-PCR cycling conditions are shown in S1 and S2 Tables. Results were analyzed according to the changes in the amplification levels compared to the control group with the analysis software of the instrument.

SH-SY5Y cell = system: SH-SY5Y cell; design: method as in PMID 31837307, PMID 32087283; settings: LPS alone; cited from earlier work
TNF-α gene expression = assay: RT-PCR TNF-α gene expression in HMC3 microglia cells; format: cell-based, human; settings: 24 h
Description: as §2, §3

IL-8 gene expression = assay: RT-PCR IL-8 gene expression in HMC3 microglia cells; format: cell-based, human; settings: 24 h
Description: as §2, §3

CD11b = assay: Active microglia marker CD11b in HMC3 cells by flow cytometry; format: cell-based, human; settings: 24 hours, control 10.1%
Description: HMC3 microglia cells were seeded in 12-well plates at a density of 75x10^3 cells per well and treated with treatment groups for 24 h. Then, cells were detached and centrifuged with Cell Staining Buffer (BioLegend, USA, Cat. No: 420201) for 5 minutes and the supernatant was discarded. Blocking was performed with 5 μl Human TruStain Fcx (BioLegend, USA, Cat. No: 422302) Fc receptor blocker solution diluted in 100 μl Cell Staining Buffer for 10 minutes at room temperature to reduce non-specific binding. The blocker was removed by centrifugation and the cells were stained with 5 μl PE anti-mouse/human CD11b Antibody (BioLegend, USA, Cat. No: 101208) diluted 1:5 in 20 μl Cell Staining Buffer for 15 minutes on ice in the dark. Then, the cells were washed 2 times with 2 ml Cell Staining Buffer and analyzed within 500 μl buffer using the BD Accuri ™ C6 flow cytometer.

[5] = HMC3, 10 ng/ml + 10 ng/ml IFN-ɣ
[6] = HMC3, 100 ng/ml + 10 ng/ml IFN-ɣ

CO[C@H]1/C=C/O[C@@]2(C)Oc3c(C)c(O)c4c(O)c(c(/C=N/N5CCN(C)CC5)c(O)c4c3C2=O)NC(=O)/C(C)=C\C=C\[C@H](C)[C@H](O)[C@@H](C)[C@@H](O)[C@@H](C)[C@H](OC(C)=O)[C@@H]1C [Rifampin, rifampin]
Effect on Aβ clearance [1]: increasing Aβ clearance
Reduction of differentiated SH-SY5Y cell viability ([2]; 1 μM, 24 hours): 30.28%
Reduction of differentiated SH-SY5Y cell viability ([2]; 1 μM, 48 hours): 17.16%
Reduction of differentiated SH-SY5Y cell viability ([2]; 10 μM, 24 hours): 46.98%
Reduction of differentiated SH-SY5Y cell viability ([2]; 10 μM, 48 hours): 25%
Reduction of differentiated SH-SY5Y cell viability ([2]; 100 μM, 24 hours): 97.24%
Reduction of differentiated SH-SY5Y cell viability ([2]; 100 μM, 48 hours): 98.61%
IC50 ([2]; 24 h, from CI values at 24th hour, 1, 10 and 100 μM tested, read-out: IC50 Values 24h SH-SY5Y): > 400 µM
IC50 ([2]; 48 h, from CI values at 48th hour, 1, 10 and 100 μM tested, read-out: IC50 Values 48h SH-SY5Y): 64.4 µM
Effect on Aβ, tau, and α-synuclein aggregation (mutated COS-7 cells): minimize Aβ, tau, and α-synuclein aggregation
CI values compared to the control group [3]: 120.7%
Reduction of HMC3 cell viability compared to the control group (HMC3 microglia cells; 10 μM, 24 hours): 12.72%
Reduction of HMC3 cell viability compared to the control group (HMC3 microglia cells; 10 μM, 48 hours): 17.79%
Reduction of HMC3 cell viability compared to the control group (HMC3 microglia cells; 100 μM, 24 hours): 15.74%
Reduction of HMC3 cell viability compared to the control group (HMC3 microglia cells; 100 μM, 48 hours): 28.72%
IC50 (HMC3 microglia cells; HMC3, 24 h, from CI values at 24th hour, 1, 10 and 100 μM tested, read-out: IC50 Values 24h HMC3): 33.2 µM
IC50 (HMC3 microglia cells; HMC3, 48 h, from CI values at 48th hour, 1, 10 and 100 μM tested, read-out: IC50 Values 48h HMC3): 31 µM
Increase of total amount of ROS compared to the control group, with NAC (SH-SY5Y cells; 30 minutes NAC 5 mM, treated (drugs 100 nM; LPS 100 ng/ml; CFS 1 μg/ml, with IFN-γ) prior to Aβ exposure): 0.25%
Decrease of total ROS amount according to the Aβ group (SH-SY5Y cells; cells treated (drugs 100 nM; LPS 100 ng/ml; CFS 1 μg/ml, with IFN-γ) before exposure to Aβ, without NAC): 43.14%
Increase of total amount of ROS compared to the control group (SH-SY5Y cells; cells treated (drugs 100 nM; LPS 100 ng/ml; CFS 1 μg/ml, with IFN-γ) before exposure to Aβ, without NAC, not significant): 0.43%
Necrotic effect (Q5-UL) ([4]; control 1.6%): 8.1%
Apoptotic effect (early apoptosis + late apoptosis) ([4]; control 1.9%): 5.8%
Percentage of living cells (Live) ([4]; control 96.5%): 86.2%

lipopolysaccharide [LPS]
IL-1β expression level compared to the control group (IL-1β gene expression; [5]): 1.64 fold
IL-1β expression level compared to the control group (IL-1β gene expression; [6]): 3.21 fold
IL-1β expression level compared to the control group (IL-1β gene expression; HMC3, 1 μg/ml + 10 ng/ml IFN-ɣ): 1.83 fold
Effect on SH-SY5Y cell viability (SH-SY5Y cell): no effect
TNF-α expression level compared to the control group (TNF-α gene expression; [5]): 1.55 fold
TNF-α expression level compared to the control group (TNF-α gene expression; [6]): 1.41 fold
TNF-α expression level compared to the control group (TNF-α gene expression; HMC3, 1 μg/ml + 10 ng/ml IFN-ɣ): 0.82 fold
IL-8 expression level compared to the control group (IL-8 gene expression; [5]): 3.07 fold
IL-8 expression level compared to the control group (IL-8 gene expression; [6]): 3.88 fold
IL-8 expression level compared to the control group (IL-8 gene expression; HMC3, 1 μg/ml + 10 ng/ml IFN-ɣ): 13.64 fold
CD11b antibody levels (positive gate V-R) (CD11b; [6]): 42.4%
CD11b antibody levels (positive gate V-R) (CD11b; HMC3, 1 μg/ml + 10 ng/ml IFN-ɣ): 23%
